A solubility (mole fraction) (in PEG-400, 298.15 K) of 0.00144, a solubility (mole fraction) (in PEG-400, 308.15 K) of 0.00206 and a solubility (mole fraction) (in PEG-400, 318.15 K) of 0.00281 were found for `COC(=O)[C@H]1[C@H]2C[C@@H]3c4[nH]c5cc(OC)ccc5c4CCN3C[C@H]2C[C@@H](OC(=O)c2cc(OC)c(OC)c(OC)c2)[C@@H]1OC` in this work. The solubility (mole fraction) (in PEG-400, 328.15 K) was 0.00373, the solubility (mole fraction) (in PEG-400, 338.15 K) was 0.0047 and the solubility (mole fraction) (in ethanol, 298.15 K) was 9.16e-06. It also gave a solubility (mole fraction) (in ethanol, 308.15 K) of 1.25e-05, a solubility (mole fraction) (in ethanol, 318.15 K) of 1.59e-05 and a solubility (mole fraction) (in ethanol, 328.15 K) of 2.07e-05. It also gave a solubility (mole fraction) (in ethanol, 338.15 K) of 2.53e-05, a solubility (mole fraction) (in ethyl acetate, 298.15 K) of 0.000521 and a solubility (mole fraction) (in ethyl acetate, 308.15 K) of 0.000608. The solubility (mole fraction) (in ethyl acetate, 318.15 K) was 0.000723, the solubility (mole fraction) (in ethyl acetate, 328.15 K) was 0.000868 and the solubility (mole fraction) (in ethyl acetate, 338.15 K) was 0.00104. For the same molecule, the solubility (mole fraction) (in ethylene glycol, 298.15 K) was 5.3e-05, the solubility (mole fraction) (in ethylene glycol, 308.15 K) was 7.04e-05 and the solubility (mole fraction) (in ethylene glycol, 318.15 K) was 9.28e-05. For the same molecule, the solubility (mole fraction) (in ethylene glycol, 328.15 K) was 0.000114, the solubility (mole fraction) (in ethylene glycol, 338.15 K) was 0.000143 and the solubility (mole fraction) (in isopropanol, 298.15 K) was 2.43e-05. For the same molecule, the solubility (mole fraction) (in isopropanol, 308.15 K) was 3.16e-05, the solubility (mole fraction) (in isopropanol, 318.15 K) was 4.02e-05 and the solubility (mole fraction) (in isopropanol, 328.15 K) was 4.95e-05. It also gave a solubility (mole fraction) (in isopropanol, 338.15 K) of 6.07e-05, a solubility (mole fraction) (in propylene glycol, 298.15 K) of 2.88e-05 and a solubility (mole fraction) (in propylene glycol, 308.15 K) of 3.38e-05. It also gave a solubility (mole fraction) (in propylene glycol, 318.15 K) of 4e-05, a solubility (mole fraction) (in propylene glycol, 328.15 K) of 4.63e-05 and a solubility (mole fraction) (in propylene glycol, 338.15 K) of 5.5e-05. The solubility (mole fraction) (in transcutol, 298.15 K) was 0.000769, the solubility (mole fraction) (in transcutol, 308.15 K) was 0.000906 and the solubility (mole fraction) (in transcutol, 318.15 K) was 0.0011. For the same molecule, the solubility (mole fraction) (in transcutol, 328.15 K) was 0.00137, the solubility (mole fraction) (in transcutol, 338.15 K) was 0.00161 and the solubility (mole fraction) (in water, 298.15 K) was 9.71e-07. It also gave a solubility (mole fraction) (in water, 308.15 K) of 1.25e-06, a solubility (mole fraction) (in water, 318.15 K) of 1.57e-06 and a solubility (mole fraction) (in water, 328.15 K) of 1.9e-06. The solubility (mole fraction) (in water, 338.15 K) was 2.25e-06.

From BigSolDB 2.1
